Experimental data as given in patent US10112899B2 (ViiV HEALTHCARE UK LIMITED, priority 2014, dated 2018).

Test system: HIV in the HTLV-1 transformed cell line MT-4
Assay: organism not typed
Format: cell-based
Conditions: MT4, 96 h, MT-4 cells; luciferase/cell titer glo readout after 96 hours; 10 point dose response

Row | SMILES | IC50
1 | Cc1ccc(-c2c(C)c3c(c(C)c2[C@H](OC(C)(C)C)C(=O)O)CN(C(=O)N2CCC(C)CC2)C3)cc1 [Example 81, (S)-2-(tert-butoxy)-2-(4,7-dimethyl-2-(4-methylpiperidine-1-carbonyl)-6-(p-tolyl)isoindolin-5-yl)acetic acid] | 16 nM
2 | Cc1ccc(-c2c(C)c3c(c(C)c2C(OC(C)(C)C)C(=O)O)CN(Cc2ccc(F)cc2)C3)cc1 (stereo not shown) [Example 1, 2-(tert-Butoxy)-2-(2-(4-fluorobenzyl)-4,7-dimethyl-6-(p-tolyl)isoindolin-5-yl)acetic acid] | 35 nM
3 | Cc1ccc(-c2c(C)c3c(c(C)c2[C@H](OC(C)(C)C)C(=O)O)CN(C(=O)c2cnccc2C)C3)cc1 [Example 260, (S)-2-(tert-butoxy)-2-(4,7-dimethyl-2-(4-methylnicotinoyl)-6-(p-tolyl)isoindolin-5-yl)acetic acid] | 15 nM
4 | Cc1ccc(-c2c(C)c3c(c(C)c2[C@H](OC(C)(C)C)C(=O)O)CN(CC2CCOCC2)C3)cc1 [Example 12, (S)-2-(tert-butoxy)-2-(4,7-dimethyl-2-((tetrahydro-2H-pyran-4-yl)methyl)-6-(p-tolyl)isoindolin-5-yl)acetic acid] | 820 nM
5 | Cc1ccc(F)cc1C(=O)N1Cc2c(C)c(-c3cc(F)c4c(c3C)CCCO4)c([C@H](OC(C)(C)C)C(=O)O)c(C)c2C1 (atropisomer, axis not shown; (M)) [Example 177, (S)-2-(tert-butoxy)-2-((M)-2-(5-fluoro-2-methylbenzoyl)-6-(8-fluoro-5-methylchroman-6-yl)-4,7-dimethylisoindolin-5-yl)acetic acid] | 2 nM
6 | Cc1c(-c2c(C)c3c(c(C)c2[C@H](OC(C)(C)C)C(=O)O)CN(C(=O)N2CCCC2)C3)cc(F)c2c1CCCO2 (atropisomer, axis not shown; (M)) [Example 208, (S)-2-(tert-butoxy)-2-((M)-6-(8-fluoro-5-methylchroman-6-yl)-4,7-dimethyl-2-(pyrrolidine-1-carbonyl)isoindolin-5-yl)acetic acid] | 4 nM
7 | Cc1ccc(-c2c(C)c3c(c(C)c2[C@H](OC(C)(C)C)C(=O)O)CN(C(=O)c2cc(C)cc(F)c2)C3)cc1 [Example 123, (S)-2-(tert-butoxy)-2-(2-(3-fluoro-5-methylbenzoyl)-4,7-dimethyl-6-(p-tolyl)isoindolin-5-yl)acetic acid] | 4 nM
8 | COc1ccc(F)c(C(=O)N2Cc3c(C)c(-c4cc(F)c5c(c4C)CCCO5)c([C@H](OC(C)(C)C)C(=O)O)c(C)c3C2)c1 (atropisomer, axis not shown; (M)) [Example 179, (S)-2-(tert-butoxy)-2-((M)-2-(2-fluoro-5-methoxybenzoyl)-6-(8-fluoro-5-methylchroman-6-yl)-4,7-dimethylisoindolin-5-yl)acetic acid] | 4 nM
9 | Cc1c(-c2c(C)c3c(c(C)c2[C@H](OC(C)(C)C)C(=O)O)CN(c2nnc(Cc4ccc(F)c(F)c4)o2)C3)cc(F)c2c1CCCO2 (atropisomer, axis not shown; (M)) [Example 203, (S)-2-(tert-butoxy)-2-((M)-2-(5-(3,4-difluorobenzyl)-1,3,4-oxadiazol-2-yl)-6-(8-fluoro-5-methylchroman-6-yl)-4,7-dimethylisoindolin-5-yl)acetic acid] | 63 nM
10 | Cc1ccc(-c2c(C)c3c(c(C)c2[C@H](OC(C)(C)C)C(=O)O)CN(C(=O)N2CCCCC2)C3)cc1 [Example 7, (S)-2-(tert-butoxy)-2-(4,7-dimethyl-2-(piperidine-1-carbonyl)-6-(p-tolyl)isoindolin-5-yl)acetic acid] | 4 nM
11 | Cc1ccc(-c2c(C)c3c(c(C)c2[C@H](OC(C)(C)C)C(=O)O)CN(C(=O)CN2CCCCC2)C3)cc1 [Example 106, (S)-2-(tert-butoxy)-2-(4,7-dimethyl-2-(2-(piperidin-1-yl)acetyl)-6-(p-tolyl)isoindolin-5-yl)acetic acid] | 143 nM
12 | Cc1c(-c2c(C)c3c(c(C)c2[C@H](OC(C)(C)C)C(=O)O)CN(C(=O)c2cc(F)cc(Cl)c2)C3)cc(F)c2c1CCCO2 (atropisomer, axis not shown; (M)) [Example 181, (S)-2-(tert-butoxy)-2-((M)-2-(3-chloro-5-fluorobenzoyl)-6-(8-fluoro-5-methylchroman-6-yl)-4,7-dimethylisoindolin-5-yl)acetic acid] | 5 nM
13 | Cc1ccc(-c2c(C)c3c(c(C)c2C(OC(C)(C)C)C(=O)O)CN(S(=O)(=O)c2cccc4ccccc24)C3)cc1 (stereo not shown) [Example 16, 2-(tert-Butoxy)-2-(4,7-dimethyl-2-(naphthalen-1-ylsulfonyl)-6-(p-tolyl)isoindolin-5-yl)acetic acid] | 62 nM
14 | Cc1cc(F)cc(C(=O)N2Cc3c(C)c(-c4cc(F)c5c(c4C)CCCO5)c([C@H](OC(C)(C)C)C(=O)O)c(C)c3C2)c1 (atropisomer, axis not shown; (M)) [Example 178, (S)-2-(tert-butoxy)-2-((M)-2-(3-fluoro-5-methylbenzoyl)-6-(8-fluoro-5-methylchroman-6-yl)-4,7-dimethylisoindolin-5-yl)acetic acid] | 2 nM
15 | COc1ccc(C(=O)N2Cc3c(C)c(-c4cc(F)c5c(c4C)CCCO5)c([C@H](OC(C)(C)C)C(=O)O)c(C)c3C2)cc1 (atropisomer, axis not shown; (M)) [Example 196, (S)-2-(tert-butoxy)-2-((M)-6-(8-fluoro-5-methylchroman-6-yl)-2-(4-methoxybenzoyl)-4,7-dimethylisoindolin-5-yl)acetic acid] | 2 nM
16 | Cc1ccc(-c2c(C)c3c(c(C)c2[C@H](OC(C)(C)C)C(=O)O)CN(Cc2cccc4c2OCCO4)C3)cc1 [Example 125, (S)-2-(tert-butoxy)-2-(2-((2,3-dihydrobenzo[b][1,4]dioxin-5-yl)methyl)-4,7-dimethyl-6-(p-tolyl)isoindolin-5-yl)acetic acid] | 15 nM
17 | Cc1c(-c2c(C)c3c(c(C)c2[C@H](OC(C)(C)C)C(=O)O)CN(C(=O)c2cccc4ccoc24)C3)cc(F)c2c1CCCO2 (atropisomer, axis not shown; (M)) [Example 169, (S)-2-((M)-2-(benzofuran-7-carbonyl)-6-(8-fluoro-5-methylchroman-6-yl)-4,7-dimethylisoindolin-5-yl)-2-(tert-butoxy)acetic acid] | 2 nM
18 | Cc1ccc(-c2c(C)c3c(c(C)c2[C@H](OC(C)(C)C)C(=O)O)CN(C(=O)c2cccc(OC(C)C)c2)C3)cc1 [Example 234, (S)-2-(tert-butoxy)-2-(2-(3-isopropoxybenzoyl)-4,7-dimethyl-6-(p-tolyl)isoindolin-5-yl)acetic acid] | 26 nM
19 | Cc1ccc(-c2c(C)c3c(c(C)c2[C@H](OC(C)(C)C)C(=O)O)CN(Cc2cccc(N4CCOCC4)c2)C3)cc1 [Example 46, (2S)-2-(tert-butoxy)-2-[4,7-dimethyl-6-(4-methylphenyl)-2-{[3-(morpholin-4-yl)phenyl]methyl}-2,3-dihydro-1H-isoindol-5-yl]acetic acid] | 4080 nM
20 | Cc1ccc(-c2c(C)c3c(c(C)c2[C@H](OC(C)(C)C)C(=O)O)CN(C(=O)c2ccccc2C)C3)cc1 [Example 219, (S)-2-(tert-butoxy)-2-(4,7-dimethyl-2-(2-methylbenzoyl)-6-(p-tolyl)isoindolin-5-yl)acetic acid] | 4 nM
21 | Cc1ccc(-c2c(C)c3c(c(C)c2[C@H](OC(C)(C)C)C(=O)O)CN(C(=O)c2cncs2)C3)cc1 [Example 269, (S)-2-(tert-butoxy)-2-(4,7-dimethyl-2-(thiazole-5-carbonyl)-6-(p-tolyl)isoindolin-5-yl)acetic acid] | 116 nM
22 | Cc1ccc(-c2c(C)c3c(c(C)c2[C@H](OC(C)(C)C)C(=O)O)CN(C(=O)N2CC[C@H](O)C2)C3)cc1 [Example 77, (2S)-2-(tert-butoxy)-2-{2-[(3S)-3-hydroxypyrrolidine-1-carbonyl]-4,7-dimethyl-6-(4-methylphenyl)-2,3-dihydro-1H-isoindol-5-yl}acetic acid] | 160 nM
23 | Cc1ccc(-c2c(C)c3c(c(C)c2[C@H](OC(C)(C)C)C(=O)O)CN(C(=O)c2cccc(B(O)O)c2)C3)cc1 [Example 257, (S)-2-(2-(3-boronobenzoyl)-4,7-dimethyl-6-(p-tolyl)isoindolin-5-yl)-2-(tert-butoxy)acetic acid] | 134 nM
24 | Cc1c(-c2c(C)c3c(c(C)c2[C@H](OC(C)(C)C)C(=O)O)CN(C(=O)c2cc(Cl)c(F)c(Cl)c2)C3)cc(F)c2c1CCCO2 (atropisomer, axis not shown; (M)) [Example 188, (S)-2-(tert-butoxy)-2-((M)-2-(3,5-dichloro-4-fluorobenzoyl)-6-(8-fluoro-5-methylchroman-6-yl)-4,7-dimethylisoindolin-5-yl)acetic acid] | 4 nM
25 | Cc1ccccc1C(=O)N1Cc2c(C)c(-c3cc(F)c4c(c3C)CCCO4)c([C@H](OC(C)(C)C)C(=O)O)c(C)c2C1 (atropisomer, axis not shown; (M)) [Example 146, (S)-2-(tert-butoxy)-2-((M)-6-(8-fluoro-5-methylchroman-6-yl)-4,7-dimethyl-2-(2-methylbenzoyl)isoindolin-5-yl)acetic acid] | 3 nM
26 | Cc1ccc(-c2c(C)c3c(c(C)c2[C@H](OC(C)(C)C)C(=O)O)CN(C(=O)N(C)C)C3)cc1 [Example 59, (2S)-2-(tert-butoxy)-2-[2-(dimethylcarbamoyl)-4,7-dimethyl-6-(4-methylphenyl)-2,3-dihydro-1H-isoindol-5-yl]acetic acid] | 279 nM
27 | Cc1ccc(-c2c(C)c3c(c(C)c2[C@H](OC(C)(C)C)C(=O)O)CN(C(=O)N2CCOCC2)C3)cc1 [Example 57, (2S)-2-(tert-butoxy)-2-[4,7-dimethyl-6-(4-methylphenyl)-2-(morpholine-4-carbonyl)-2,3-dihydro-1H-isoindol-5-yl]acetic acid] | 44 nM
28 | Cc1c2c(c(C)c([C@H](OC(C)(C)C)C(=O)O)c1-c1ccc3c(c1)CCCO3)CN(C(=O)c1cccc(F)c1)C2 [Example 304, (S)-2-(tert-butoxy)-2-(6-(chroman-6-yl)-2-(3-fluorobenzoyl)-4,7-dimethylisoindolin-5-yl)acetic acid] | 4 nM
